From US20240246946A1, “MODULATORS OF TREX1” (Constellation Pharmaceuticals, Inc., priority 2021, published 2024) come the findings set out here.

Where only a bound is given, the exact number is not on record here.

One experiment addresses T1, full length human TREX1 (Homo sapiens, UniProt Q9NSU2).
T1 construct: N-terminally His-Tev tagged full length human TREX1; made in house; host or cells: E. coli
T1 sequence (Q9NSU2 1-314): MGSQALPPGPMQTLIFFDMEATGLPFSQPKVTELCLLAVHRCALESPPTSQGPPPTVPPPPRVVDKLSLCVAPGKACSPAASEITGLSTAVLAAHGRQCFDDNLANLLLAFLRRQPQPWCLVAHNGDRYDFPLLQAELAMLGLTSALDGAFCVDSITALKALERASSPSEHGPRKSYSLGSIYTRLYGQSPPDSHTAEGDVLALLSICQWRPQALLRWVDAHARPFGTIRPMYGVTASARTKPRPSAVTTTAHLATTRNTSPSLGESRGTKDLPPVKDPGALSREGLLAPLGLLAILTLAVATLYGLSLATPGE
Description: hTREX1 Biochemical Assay (fluorescence, dsDNA substrate degradation). The conditions noted are these: biochemical, read-out: hTREX1 IC50. A digest of the protocol:
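Fluorescence rises as enzyme degrades a quenched TEX615-labelled dsDNA substrate (60 nM) in 50 mM Tris, 150 mM NaCl, 5 mM MgCl2, pH 7.4. Full-length His-Tev-tagged human TREX1, 4 pM, sits with compound 4 hours at 25° C before substrate; reaction 18 hours, stopped with EDTA.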

The next experiment concerns the target T2, full length mouse TREX1 (Mus musculus, UniProt Q91XB0).
T2 construct: N-terminally His-Tev tagged full length mouse TREX1; made in house; host or cells: E. coli
T2 sequence (Q91XB0 1-314): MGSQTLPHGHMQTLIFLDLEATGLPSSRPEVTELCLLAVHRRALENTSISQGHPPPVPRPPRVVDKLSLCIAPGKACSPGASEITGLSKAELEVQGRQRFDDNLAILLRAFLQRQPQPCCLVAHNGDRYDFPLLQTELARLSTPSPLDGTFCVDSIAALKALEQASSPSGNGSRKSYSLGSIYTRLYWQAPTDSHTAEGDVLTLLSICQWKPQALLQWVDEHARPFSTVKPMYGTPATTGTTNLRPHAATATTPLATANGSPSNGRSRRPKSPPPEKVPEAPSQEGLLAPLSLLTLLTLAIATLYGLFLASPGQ
Description: mTREX1 Biochemical Assay (fluorescence, dsDNA substrate degradation). The following applies: biochemical, read-out: mTREX1 IC50. A digest of the protocol: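 Reaction run 18 h at 25° C. with 60 nM TEX615/quencher-labelled dsDNA and 6 pM mouse TREX1 in Tris buffer (pH 7.4, 5 mM MgCl2, 1.0% DMSO), enzyme having sat 4 h with compound across 10 concentrations. EDTA quench; substrate degradation measured as fluorescence increase.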

Experiment [1] has as its target T3, human TREX2 (residues M44-A279) (Homo sapiens, UniProt Q9BQ50).
T3 construct: human TREX2 (residues M44-A279, expressed in E. coli); made in house; host or cells: E. coli
T3 sequence (Q9BQ50 44-279 isoform Q9BQ50-1): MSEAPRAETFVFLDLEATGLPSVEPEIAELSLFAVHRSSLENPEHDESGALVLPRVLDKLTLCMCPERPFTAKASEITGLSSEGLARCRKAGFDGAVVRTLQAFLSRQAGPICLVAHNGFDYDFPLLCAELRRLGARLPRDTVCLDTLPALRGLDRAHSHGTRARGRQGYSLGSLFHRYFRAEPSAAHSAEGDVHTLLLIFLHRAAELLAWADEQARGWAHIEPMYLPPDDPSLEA
The experiment in a line: hTREX2 Biochemical Assay (fluorescence, dsDNA substrate degradation). The following applies: biochemical selectivity for hTREX1 vs hTREX2. The method, boiled down: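 Fluorogenic dsDNA degradation read at 615 nm (570 nm excitation) after EDTA quench. Final 60 nM substrate, 50 pM His-Tev-tagged enzyme, 5 mM MgCl2, pH 7.4, 1.0% DMSO; 4 h compound–enzyme preincubation then 18 h reaction, both 25 °C; 10-point titration.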

For `CC(c1nc(C(=O)Nc2cnoc2)c(O)c(=O)n1C)C(c1ccccc1Cl)n1nccc1C(N)=O` (single isomer, unassigned) [Example 147 D1E2], the IC50 on full length human TREX1 and at full length mouse TREX1 was greater than 10 nM in each case. Further, the “hTREX1 vs hTREX2 selectivity” value in experiment [1] is recorded as “A (A = <25 fold selective for hTREX1)”.
Consider `Cc1cnc(C)c(C(c2ccccc2Cl)C(C)c2nc(C(=O)Nc3cnoc3)c(O)c(=O)n2C)n1` (single isomer, unassigned) [Example 120 D1E2], for which the IC50 at full length human TREX1 and on full length mouse TREX1 was greater than 10 nM in each case. The “hTREX1 vs hTREX2 selectivity” value in experiment [1] is on record as “A (A = <25 fold selective for hTREX1)”.
Consider `Cc1ncc(C(c2ccccc2Cl)C(C)c2nc(C(=O)Nc3cnoc3)c(O)c(=O)n2C)nc1C` (single isomer, unassigned) [Example 125 D1E1], for which the IC50 at full length human TREX1 and on full length mouse TREX1 was greater than 10 nM throughout. Further, the “hTREX1 vs hTREX2 selectivity” value in experiment [1] is reported as “A (A = <25 fold selective for hTREX1)”.
`CCn1cc(C(c2ccccc2Cl)C(C)c2nc(C(=O)Nc3cnoc3)c(O)c(=O)n2C)cn1` (single isomer, unassigned) [Example 85 D2E2]: the IC50 on full length human TREX1 and at full length mouse TREX1 was greater than 10 nM in each case. In addition, the “hTREX1 vs hTREX2 selectivity” value in experiment [1] was “A (A = <25 fold selective for hTREX1)”.
For `CC(c1nc(C(=O)Nc2cnoc2)c(O)c(=O)n1C)C(c1cnn(C(C)(C)CC#N)c1)c1cc(F)ccc1Cl` (single isomer, unassigned) [Example 100 D1E2], the IC50 (usually the point on the concentration scale where inhibition reaches its midpoint) on full length human TREX1 was 1 to 10 nM; at full length mouse TREX1 it was greater than 10 nM. For the same compound, the “hTREX1 vs hTREX2 selectivity” value in experiment [1] was “A (A = <25 fold selective for hTREX1)”.
Taken in the same sequence, the figures for `CC(c1nc(C(=O)Nc2cnoc2)c(O)c(=O)n1C)C(c1ccccc1Cl)c1nncn1C` (single isomer, unassigned) [Example 152 D2E1] were greater than 10 nM, greater than 10 nM and “B (B = 25 to 50-fold selective for hTREX1)”.
For `Cc1cc(C(c2ccccc2C#N)C(C)c2nc(C(=O)Nc3cnoc3)c(O)c(=O)n2C)n(C)n1` (single isomer, unassigned) [Example 63 D1E2] the same measures were 1 to 10 nM, greater than 10 nM and “C (C = >50 fold selective for hTREX1)”.
For `CCn1ncc(C(c2ccccc2C#N)C(C)c2nc(C(=O)Nc3cnoc3)c(O)c(=O)n2C)c1C` (single isomer, unassigned) [Example 68 D2E1] the same measures were less than 1 nM, greater than 10 nM and “B (B = 25 to 50-fold selective for hTREX1)”.
For the compound `COCCn1ncc(C(c2cc(F)ccc2C#N)C(C)c2nc(C(=O)Nc3cnoc3)c(O)c(=O)n2C)c1C` (single isomer, unassigned) [Example 104 D2E2], the IC50 at full length human TREX1 was 1 to 10 nM; at full length mouse TREX1, greater than 10 nM. In addition, in experiment [1], the “hTREX1 vs hTREX2 selectivity” value is “B (B = 25 to 50-fold selective for hTREX1)”.
Regarding `CC(c1nc(C(=O)Nc2cnoc2)c(O)c(=O)n1C)C(c1ccccc1Cl)n1cnc2ccccc21` (single isomer, unassigned) [Example 143 D1E2], the IC50 at full length human TREX1 and at full length mouse TREX1 was greater than 10 nM each time. Also, the “hTREX1 vs hTREX2 selectivity” value in experiment [1] is “A (A = <25 fold selective for hTREX1)”.
As for `CCn1c(C(C)C(c2cnn(C)c2)c2ccccc2C#N)nc(C(=O)Nc2cnoc2)c(O)c1=O` (single isomer, unassigned) [Example 149 D2E1], the IC50 on full length human TREX1 and on full length mouse TREX1 was greater than 10 nM throughout. For the same compound, the “hTREX1 vs hTREX2 selectivity” value in experiment [1] is reported as “A (A = <25 fold selective for hTREX1)”.
For `Cc1nnc(C(c2ccccc2Cl)C(C)c2nc(C(=O)Nc3cnoc3)c(O)c(=O)n2C)o1` (single isomer, unassigned) [Example 156 D2E1], the IC50 at full length human TREX1 and on full length mouse TREX1 was greater than 10 nM throughout. The “hTREX1 vs hTREX2 selectivity” value in experiment [1] was “A (A = <25 fold selective for hTREX1)”.
For `CCc1cnn(C(c2ccccc2Cl)C(C)c2nc(C(=O)Nc3cnoc3)c(O)c(=O)n2C)c1` (single isomer, unassigned) [Example 134 D1E2], the IC50 at full length human TREX1 and at full length mouse TREX1 was greater than 10 nM each time. Further, the “hTREX1 vs hTREX2 selectivity” value in experiment [1] is “A (A = <25 fold selective for hTREX1)”.
